For assay [1], the target named is T1, Slo3 (potassium channel subfamily U member 1, KCNU1) (Homo sapiens, UniProt A8MYU2).
T1 sequence (A8MYU2 1-1149): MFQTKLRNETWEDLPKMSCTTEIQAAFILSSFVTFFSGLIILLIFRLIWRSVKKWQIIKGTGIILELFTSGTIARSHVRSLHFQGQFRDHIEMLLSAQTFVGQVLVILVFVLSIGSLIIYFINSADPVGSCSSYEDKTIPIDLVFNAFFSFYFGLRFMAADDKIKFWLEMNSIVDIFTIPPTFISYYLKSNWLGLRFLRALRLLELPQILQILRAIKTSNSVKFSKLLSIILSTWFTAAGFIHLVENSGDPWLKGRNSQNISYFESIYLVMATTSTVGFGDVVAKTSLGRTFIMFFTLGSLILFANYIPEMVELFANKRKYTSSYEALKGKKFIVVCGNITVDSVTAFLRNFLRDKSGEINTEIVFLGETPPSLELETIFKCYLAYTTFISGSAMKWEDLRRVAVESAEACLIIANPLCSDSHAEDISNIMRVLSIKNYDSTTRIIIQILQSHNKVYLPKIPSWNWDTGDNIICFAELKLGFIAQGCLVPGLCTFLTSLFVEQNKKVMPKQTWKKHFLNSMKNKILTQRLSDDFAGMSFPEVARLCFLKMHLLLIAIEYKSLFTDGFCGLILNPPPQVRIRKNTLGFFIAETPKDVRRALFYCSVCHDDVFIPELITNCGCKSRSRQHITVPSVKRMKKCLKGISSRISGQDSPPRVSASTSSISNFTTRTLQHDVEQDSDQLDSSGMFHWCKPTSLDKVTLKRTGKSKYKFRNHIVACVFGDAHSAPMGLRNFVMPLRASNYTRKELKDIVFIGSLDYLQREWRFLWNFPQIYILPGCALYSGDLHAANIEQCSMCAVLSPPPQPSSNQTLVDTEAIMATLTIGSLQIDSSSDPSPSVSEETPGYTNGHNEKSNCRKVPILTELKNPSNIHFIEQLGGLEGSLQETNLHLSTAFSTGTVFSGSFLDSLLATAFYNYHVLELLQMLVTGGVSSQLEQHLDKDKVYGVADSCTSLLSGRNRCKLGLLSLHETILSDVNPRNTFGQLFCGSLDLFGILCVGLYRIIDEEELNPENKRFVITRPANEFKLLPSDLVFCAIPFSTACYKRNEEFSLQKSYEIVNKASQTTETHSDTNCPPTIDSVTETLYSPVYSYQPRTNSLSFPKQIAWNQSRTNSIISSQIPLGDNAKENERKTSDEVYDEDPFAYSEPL
T1 sequence (Q8N7C0 24-313 partner): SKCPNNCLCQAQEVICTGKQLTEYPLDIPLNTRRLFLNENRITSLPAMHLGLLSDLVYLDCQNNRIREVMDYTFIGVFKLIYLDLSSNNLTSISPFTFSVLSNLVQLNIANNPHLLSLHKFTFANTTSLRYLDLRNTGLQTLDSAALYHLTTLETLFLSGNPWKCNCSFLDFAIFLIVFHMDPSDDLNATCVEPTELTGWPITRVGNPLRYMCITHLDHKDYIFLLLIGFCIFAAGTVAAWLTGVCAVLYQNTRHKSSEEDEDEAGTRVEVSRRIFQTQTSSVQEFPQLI
The assay is described as follows: whole-cell patch clamp, HEK293 cells, […] single dose. Format: cell-based. Conditions: HEK293, read-out: % inhibition at 50 μM. For orientation: The patch-clamp technique gives a direct electrical read-out from membranes.

Assay [2] deals with T1, Slo3 (potassium channel subfamily U member 1, KCNU1). The assay is described as follows: whole-cell patch clamp, HEK293 cells, dose response. It counts as cell-based.

The term inhibition denotes the share of the control response that was lost under treatment. As usually defined, the EC50 is the concentration at which the effect is half-maximal.

With `O=c1cc(-c2ccc(O)c(O)c2)oc2cc(O)cc(O)c12` [luteolin], the inhibition at 50 µM in assay [1] is 53.5 ± 3.15%.
As for `O=c1c(O)c(-c2ccc(O)c(O)c2)oc2cc(O)cc(O)c12` [quercetin], in assay [2], it took 11.3 µM to reach a half-maximal effect (EC50).
Consider `O=c1c(O)c(-c2ccc(O)cc2O)oc2cc(O)cc(O)c12` [morin], for which the inhibition at 50 µM in assay [1] amounted to 42.1 ± 2.16%.

These data come from article PMC6717788 (The Korean Journal of Physiology & Pharmacology : …, 2019).
